# Reference: PubChem BioAssay (NCI)
#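 Results reflect a 48-hour exposure of cells in 96-well plates to compound at five concentrations. GI50 marks 50% less growth. TGI denotes the concentration required for complete inhibition of growth.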
# Tests used:
# Test in all cases: growth of human tumour cells (NCI), 48 h
# UO-31 renal = system: UO-31 renal
# SR leukemia = system: SR leukemia
# IGROV1 ovarian = system: IGROV1 ovarian
# RXF 393 renal = system: RXF 393 renal
# SNB-19 CNS = system: SNB-19 CNS
# A498 renal = system: A498 renal
# A549 NSCLC = system: A549 NSCLC
# CAKI-1 renal = system: CAKI-1 renal
# KM12 colon = system: KM12 colon
# TK-10 renal = system: TK-10 renal
compound,measurement,setting,value
COc1cc(C=C2C(C)=NN(c3cccc(Cl)c3)C23SCC(=O)N3c2nc3ccccc3s2)ccc1O (stereo unspecified),TGI,UO-31 renal,> 92.2 µM
same,TGI,SR leukemia,29.2 µM
same,TGI,IGROV1 ovarian,> 100 µM
same,TGI,RXF 393 renal,62.7 µM
same,TGI,SNB-19 CNS,> 100 µM
same,TGI,A498 renal,66 µM
same,TGI,A549 NSCLC,> 100 µM
same,TGI,CAKI-1 renal,> 96.2 µM
same,TGI,KM12 colon,> 95.1 µM
same,TGI,TK-10 renal,> 100 µM
CNC(=O)OC(C)CN1c2ccccc2Sc2ccc(Cl)cc21 (stereo unspecified),TGI,UO-31 renal,> 10 µM
same,TGI,SR leukemia,> 10 µM
same,TGI,IGROV1 ovarian,> 10 µM
same,TGI,RXF 393 renal,> 10 µM
same,TGI,SNB-19 CNS,> 10 µM
same,TGI,A498 renal,> 10 µM
same,TGI,A549 NSCLC,> 10 µM
same,TGI,CAKI-1 renal,> 10 µM
same,TGI,TK-10 renal,> 10 µM
CCOC(=O)CSc1nc(N)c2c(-c3ccc(OC)c(OC)c3)c3c(nc2n1)CCCC3,TGI,UO-31 renal,> 100 µM
same,TGI,SR leukemia,> 100 µM
same,TGI,IGROV1 ovarian,> 100 µM
same,TGI,RXF 393 renal,> 100 µM
same,TGI,SNB-19 CNS,> 100 µM
same,TGI,A549 NSCLC,> 100 µM
same,TGI,CAKI-1 renal,> 100 µM
same,TGI,KM12 colon,> 100 µM
same,TGI,TK-10 renal,> 100 µM
COc1ccc2nc(-n3c(/C=C/c4ccccc4O)nc4ccccc4c3=O)sc2c1,TGI,UO-31 renal,> 100 µM
same,TGI,IGROV1 ovarian,> 100 µM
same,TGI,RXF 393 renal,> 100 µM
same,TGI,SNB-19 CNS,> 100 µM
same,TGI,A498 renal,> 100 µM
same,TGI,A549 NSCLC,> 100 µM
same,TGI,CAKI-1 renal,> 100 µM
same,TGI,KM12 colon,> 100 µM
same,TGI,TK-10 renal,> 100 µM
CC[C@H]1C=CCC[C@@]2(C[C@@H]3CC[C@@H]4[C@H](C(=O)OCCCCCCCCCCCCCCCC(=O)O)[C@]5(CCC[C@@H](C)O5)NC(=[N+]34)N2)O1,TGI,UO-31 renal,0.339 µM
same,TGI,SR leukemia,0.357 µM
same,TGI,IGROV1 ovarian,8.93 µM
same,TGI,RXF 393 renal,1.9 µM
same,TGI,SNB-19 CNS,9.46 µM
same,TGI,A498 renal,1.23 µM
same,TGI,A549 NSCLC,5.87 µM
same,TGI,CAKI-1 renal,3.47 µM
same,TGI,KM12 colon,5.76 µM
same,TGI,TK-10 renal,8.73 µM
Cn1c(=O)c2c(nc(-n3nc(-c4ccc(Cl)cc4)cc3N)n2C)n(C)c1=O,TGI,UO-31 renal,> 100 µM
same,TGI,SR leukemia,> 100 µM
same,TGI,IGROV1 ovarian,> 100 µM
same,TGI,RXF 393 renal,> 100 µM
same,TGI,SNB-19 CNS,> 100 µM
same,TGI,A498 renal,> 100 µM
same,TGI,A549 NSCLC,> 100 µM
same,TGI,CAKI-1 renal,> 100 µM
same,TGI,KM12 colon,> 100 µM
same,TGI,TK-10 renal,> 100 µM
COc1ccc2nc(-c3ccc(-c4noc(-c5cc(OC)c(OC)c(OC)c5)n4)cc3)[nH]c2c1,GI50,UO-31 renal,18900 nM
same,TGI,UO-31 renal,38.7 µM
same,GI50,IGROV1 ovarian,26300 nM
same,TGI,IGROV1 ovarian,69.1 µM
same,GI50,RXF 393 renal,5.24 µM
same,TGI,RXF 393 renal,19.1 µM
same,GI50,SNB-19 CNS,12.7 µM
same,TGI,SNB-19 CNS,36.8 µM
same,GI50,A498 renal,28000 nM
same,TGI,A498 renal,> 100 µM
same,GI50,A549 NSCLC,5.65 µM
same,TGI,A549 NSCLC,20.3 µM
same,GI50,CAKI-1 renal,23400 nM
same,TGI,CAKI-1 renal,54.9 µM
same,GI50,KM12 colon,7.52 µM
same,TGI,KM12 colon,81.8 µM
same,GI50,TK-10 renal,4620 nM
same,TGI,TK-10 renal,13 µM
CCCNC(=O)c1cc(NC(=O)c2cc(NC(=O)/C=C/c3ccccc3)c(OC)c(OC)c2)c(OC)c(OC)c1,TGI,UO-31 renal,20.7 µM
same,TGI,SR leukemia,> 100 µM
same,TGI,IGROV1 ovarian,31.7 µM
same,TGI,RXF 393 renal,8.31 µM
same,TGI,SNB-19 CNS,21.6 µM
same,TGI,A498 renal,30.8 µM
same,TGI,A549 NSCLC,23.9 µM
same,TGI,KM12 colon,41.8 µM
same,TGI,TK-10 renal,40.1 µM
ONc1ncnc2nc[nH]c12,TGI,UO-31 renal,> 100 µM
same,TGI,SR leukemia,> 100 µM
same,TGI,IGROV1 ovarian,> 100 µM
same,TGI,SNB-19 CNS,> 100 µM
same,TGI,A549 NSCLC,> 100 µM
same,TGI,CAKI-1 renal,> 100 µM
same,TGI,KM12 colon,> 100 µM
same,TGI,TK-10 renal,> 100 µM
CN(C)CC(=O)Nc1ccc(Cn2nnc3c2C(=O)c2nnn(Cc4ccc(NC(=O)CN(C)C)cc4)c2C3=O)cc1,GI50,A498 renal,1070 nM
same,TGI,A498 renal,2.29 µM
same,GI50,CAKI-1 renal,2590 nM
same,TGI,CAKI-1 renal,> 100 µM
same,GI50,TK-10 renal,2860 nM
same,TGI,TK-10 renal,7.58 µM
N=C(N)c1ccc(-c2ccc(-c3cc(Cl)cc(Cl)c3)o2)nc1,GI50,UO-31 renal,1540 nM
same,TGI,UO-31 renal,3.11 µM
same,GI50,SR leukemia,1780 nM
same,TGI,SR leukemia,4.8 µM
same,GI50,IGROV1 ovarian,2090 nM
same,TGI,IGROV1 ovarian,3.79 µM
same,GI50,SNB-19 CNS,1.63 µM
same,TGI,SNB-19 CNS,3.1 µM
same,GI50,A498 renal,1470 nM
same,TGI,A498 renal,3.22 µM
same,GI50,CAKI-1 renal,1760 nM
same,TGI,CAKI-1 renal,3.35 µM
same,GI50,KM12 colon,1.85 µM
same,TGI,KM12 colon,3.44 µM
same,GI50,TK-10 renal,1870 nM
same,TGI,TK-10 renal,3.5 µM
CCC1C(C#N)=C(N)OC2=C1C(=O)CC(C)(C)C2 (stereo unspecified),TGI,IGROV1 ovarian,> 100 µM
same,TGI,SNB-19 CNS,> 100 µM
same,TGI,A498 renal,> 100 µM
same,TGI,A549 NSCLC,> 100 µM
same,TGI,CAKI-1 renal,> 100 µM
same,TGI,KM12 colon,> 100 µM
same,TGI,TK-10 renal,> 100 µM
CC(=O)Nc1cc([As](=O)(O)O)ccc1O,TGI,UO-31 renal,> 100 µM
same,TGI,SR leukemia,> 100 µM
same,TGI,IGROV1 ovarian,> 100 µM
same,TGI,RXF 393 renal,> 100 µM
same,TGI,SNB-19 CNS,> 100 µM
same,TGI,A498 renal,> 100 µM
same,TGI,A549 NSCLC,> 100 µM
same,TGI,CAKI-1 renal,> 100 µM
same,TGI,KM12 colon,> 100 µM
same,TGI,TK-10 renal,> 100 µM
CC#CC#C/C=C1/O[C@]2(CCC(OC(C)=O)CO2)[C@@H]2O[C@H]12 (stereo partly specified),TGI,UO-31 renal,39 µM
same,TGI,SR leukemia,> 100 µM
same,TGI,IGROV1 ovarian,> 100 µM
same,TGI,RXF 393 renal,47.5 µM
same,TGI,SNB-19 CNS,> 100 µM
same,TGI,A498 renal,45.7 µM
same,TGI,A549 NSCLC,> 100 µM
same,TGI,CAKI-1 renal,63.6 µM
same,TGI,KM12 colon,47.1 µM
same,TGI,TK-10 renal,> 100 µM
COc1cccc(N=Cc2cc3cc(Br)ccc3nc2Cl)c1,TGI,UO-31 renal,> 50 µM
same,TGI,SR leukemia,20.8 µM
same,TGI,IGROV1 ovarian,> 50 µM
same,TGI,RXF 393 renal,> 50 µM
same,TGI,SNB-19 CNS,> 50 µM
same,TGI,A549 NSCLC,> 50 µM
same,TGI,CAKI-1 renal,> 50 µM
same,TGI,KM12 colon,> 50 µM
CCCc1[nH]c(SCCCCCCCCSc2nc(-c3ccc(F)cc3)c(CCC)[nH]2)nc1-c1ccc(F)cc1,TGI,UO-31 renal,> 100 µM
same,TGI,SR leukemia,> 100 µM
same,TGI,IGROV1 ovarian,> 100 µM
same,TGI,RXF 393 renal,> 100 µM
same,TGI,SNB-19 CNS,> 100 µM
same,TGI,A549 NSCLC,> 100 µM
same,TGI,KM12 colon,> 100 µM
same,TGI,TK-10 renal,> 100 µM
O=C(CCCCCCC(=O)Nc1ccc(N(CCCl)CCCl)cc1)NO,GI50,UO-31 renal,1820 nM
same,TGI,UO-31 renal,13 µM
same,GI50,SR leukemia,230 nM
same,TGI,SR leukemia,3.09 µM
same,GI50,IGROV1 ovarian,2510 nM
same,TGI,IGROV1 ovarian,21.2 µM
same,GI50,RXF 393 renal,1.64 µM
same,TGI,RXF 393 renal,4.74 µM
same,GI50,SNB-19 CNS,4.12 µM
same,TGI,SNB-19 CNS,29 µM
same,GI50,A498 renal,3110 nM
same,TGI,A498 renal,13.1 µM
same,GI50,CAKI-1 renal,1200 nM
same,TGI,CAKI-1 renal,11.2 µM
same,GI50,KM12 colon,6.58 µM
same,TGI,KM12 colon,21.7 µM
CCS(=O)(=O)Nc1ccc(Nc2c3ccccc3nc3ccccc23)c(OC)c1,TGI,UO-31 renal,6.34 µM
same,TGI,IGROV1 ovarian,22.4 µM
same,TGI,RXF 393 renal,9.6 µM
same,TGI,SNB-19 CNS,6.41 µM
same,TGI,A498 renal,2.28 µM
same,TGI,A549 NSCLC,1.7 µM
same,TGI,CAKI-1 renal,4.08 µM
same,TGI,KM12 colon,6.72 µM
